Calls of active or inactive are those of the source. Rule as the data show it: actives have a measured EC50 and inactives only a lower limit.

The test system of experiment [1] is Streptococcus sp. 'group A'. Put plainly: Streptococcus pyogenes SK(-)GAS viability under kanamycin – luminescence, BacTiterGlo, confirmation, counter-screen for streptokinase expression inhibitor project, dose response (AID 1900). The experiment is classed as functional, organism-based. On the technique in general: A counterscreen serves to expose hits that act by an unwanted route or on another target.

Another experiment relates to Streptococcus. The experiment can be described thus: GAS UMAA2166 growth inhibition – luminescence, BacTiterGlo, counter-screen for streptokinase expression inhibitor project, dose response (AID 1915).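 Also: potency for reduction of bacterial viability or growth.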 The experiment is classed as functional, organism-based.
In another experiment the target is T1, Streptokinase A (Streptococcus pyogenes serotype M1, UniProt P10520).
T1 sequence (P10520 whole entry): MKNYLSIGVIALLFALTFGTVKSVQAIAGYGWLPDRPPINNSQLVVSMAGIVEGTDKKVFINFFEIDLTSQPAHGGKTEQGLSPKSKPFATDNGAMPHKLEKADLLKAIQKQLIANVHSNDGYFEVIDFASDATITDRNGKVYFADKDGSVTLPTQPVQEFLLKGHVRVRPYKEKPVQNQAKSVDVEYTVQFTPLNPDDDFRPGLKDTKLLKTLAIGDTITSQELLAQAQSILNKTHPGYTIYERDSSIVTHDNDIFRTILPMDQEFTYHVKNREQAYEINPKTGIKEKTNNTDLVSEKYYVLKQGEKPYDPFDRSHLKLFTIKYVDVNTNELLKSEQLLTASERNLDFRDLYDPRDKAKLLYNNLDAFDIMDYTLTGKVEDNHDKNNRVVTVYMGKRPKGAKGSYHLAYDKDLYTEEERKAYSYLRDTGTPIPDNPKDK
Put plainly: viability-normalized secreted streptokinase activity reduction – plasminogen activation absorbance, OD405, dose response (AID 1914).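 Also: secreted streptokinase activity via plasminogen activation per viability signal from cell pellet.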 In kind it is functional, Streptococcus pyogenes M1 GAS.

The nature of experiment [2]: Trypanosoma cruzi growth suppression in host cells – NIH3T3 host cells, beta-gal luminescence, confirmation (AID 2044).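 Also: intracellular parasites grown in NIH/3T3 mouse fibroblasts as host cells; luminescent beta-galactosidase reporter signal from transgenic T. cruzi replicating inside host cells; inhibitors lower the luminescence signal.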 In kind it is functional, cell-based.
A short description of experiment [3]: NIH3T3 cell viability loss – ATP luminescence, mouse fibroblasts, counter-screen, dose response (AID 2010).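 Also: cells exposed to compound for about 90 hours before reading.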 The experiment is classed as functional, cell-based.
The target of experiment [4] is T2, Corticotropin-releasing factor receptor 2/Corticotropin-releasing factor-binding protein (Homo sapiens, UniProt P24387+Q13324).
T2 sequence (Q13324 whole entry): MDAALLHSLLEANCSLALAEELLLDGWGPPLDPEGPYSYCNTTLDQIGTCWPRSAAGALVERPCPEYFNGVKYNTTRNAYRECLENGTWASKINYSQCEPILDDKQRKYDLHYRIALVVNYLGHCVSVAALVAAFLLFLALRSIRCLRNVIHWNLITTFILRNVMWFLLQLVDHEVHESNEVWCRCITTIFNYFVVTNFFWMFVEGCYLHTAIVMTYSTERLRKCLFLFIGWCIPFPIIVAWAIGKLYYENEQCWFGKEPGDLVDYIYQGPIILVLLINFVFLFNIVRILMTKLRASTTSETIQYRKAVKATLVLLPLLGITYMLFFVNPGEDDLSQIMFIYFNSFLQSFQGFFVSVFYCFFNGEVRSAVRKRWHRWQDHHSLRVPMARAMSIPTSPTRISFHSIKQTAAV
T2 sequence (P24387 whole entry): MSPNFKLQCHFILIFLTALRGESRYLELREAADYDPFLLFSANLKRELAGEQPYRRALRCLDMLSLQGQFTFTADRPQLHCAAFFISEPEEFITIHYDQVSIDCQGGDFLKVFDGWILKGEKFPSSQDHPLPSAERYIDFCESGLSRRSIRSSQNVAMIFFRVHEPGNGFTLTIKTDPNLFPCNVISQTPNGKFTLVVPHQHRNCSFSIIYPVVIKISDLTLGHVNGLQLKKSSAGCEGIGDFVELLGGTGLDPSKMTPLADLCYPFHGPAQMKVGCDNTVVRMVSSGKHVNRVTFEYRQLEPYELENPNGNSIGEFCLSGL
The experiment can be described thus: activators of CRF receptor 2 with binding protein – uHTS hits, confirmation (AID 602473). In kind it is functional. Particulars: read-out: EC50_Mean.

Experiment [5] deals with T3, Heat shock factor protein 1 (Mus musculus, UniProt P38532).
T3 sequence (P38532 whole entry): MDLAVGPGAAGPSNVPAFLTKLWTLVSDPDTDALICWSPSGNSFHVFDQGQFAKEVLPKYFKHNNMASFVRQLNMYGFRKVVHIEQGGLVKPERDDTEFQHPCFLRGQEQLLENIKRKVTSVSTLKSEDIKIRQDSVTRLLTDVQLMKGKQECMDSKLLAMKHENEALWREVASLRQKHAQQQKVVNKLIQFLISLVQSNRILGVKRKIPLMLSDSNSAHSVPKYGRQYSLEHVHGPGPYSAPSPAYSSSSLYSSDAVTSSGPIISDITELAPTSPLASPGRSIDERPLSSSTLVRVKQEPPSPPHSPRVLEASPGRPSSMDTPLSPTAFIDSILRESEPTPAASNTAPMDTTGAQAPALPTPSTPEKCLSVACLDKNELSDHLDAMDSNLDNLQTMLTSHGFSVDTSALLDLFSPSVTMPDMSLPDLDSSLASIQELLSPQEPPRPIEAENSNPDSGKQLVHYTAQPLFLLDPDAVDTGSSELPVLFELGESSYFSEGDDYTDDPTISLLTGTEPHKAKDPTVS
Put plainly: enhancement of HSF1-driven luciferase signal – cell-based, NIH3T3, luminescence, dose retest, confirmation (AID 435004).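 Also: stress induced by proteasome inhibitor MG132 added 30 min after compound; luciferase reporter driven by HSF1 response element in NIH3T3 cells; actives raise luminescence as potentiators of the MG132 stress response.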 The experiment is classed as functional.

Regarding `COCCn1c(-c2cc(OC)c(OC)c(OC)c2)nc2oc3cc(OC)ccc3c(=O)c2c1=O`, the EC50 (in experiment [1]; in the experiment on Streptococcus; on Streptokinase A) was > 150 µM (not active) in each case.

As for `Cc1ccc2ccc(C(Nc3cccc(C(F)(F)F)c3)c3cccnc3)c(O)c2n1` (centres undefined), the figures for the EC50 (in experiment [1]; in the experiment with Streptococcus; on Streptokinase A) were 2.12 µM (active), 10.7 µM (active) and > 150 µM (not active), respectively.

Regarding `Cc1ccc(C(=N)NOC(=O)N2CCOCC2)cc1`, the EC50 in experiment [2] was 1.95 µM (active); in experiment [3], > 60 µM (not active).

Take `CC(=O)Nc1ccc(NC(=O)CSc2nnc(NC(=O)c3ccc(Br)o3)s2)cc1`: the results for the EC50 (in experiment [1]; in the experiment on Streptococcus; at Streptokinase A) were 8.52 µM (active), 44 µM (active) and > 150 µM (not active), respectively.

In the case of `C#CCN(N(C)c1ncc(C(F)(F)F)cc1Cl)S(=O)(=O)c1ccc2ccccc2c1`, the EC50 in experiment [4] is > 53 µM (inactive).

As to `Cn1c(O)cc(=O)nc1SCC(=O)Nc1ccc(Cl)cc1`, the EC50 is 29.9 µM (active) in experiment [1] and > 150 µM (not active) in the experiment with Streptococcus.

`Cc1ccc(NS(=O)(=O)c2ccc(C(=O)N3CC(C)OC(C)C3)cc2)cc1` (centres undefined): in experiment [4], the EC50 was 8.95 µM (active).

Consider `c1ccc2c(c1)nc(Nc1ccc(N3CCCCC3)cc1)c1nncn12`, for which the EC50 was 6.13 µM (active) in experiment [1], 91.3 µM (active) with Streptococcus and > 150 µM (not active) on Streptokinase A.

With `CCOC(=O)CC(NC(=O)CCS(=O)(=O)c1ccc2c(c1)n(C)c(=O)c(=O)n2C)c1ccc(C)cc1` (centres undefined), the EC50 (in experiment [1]; with Streptococcus; at Streptokinase A) was > 150 µM (not active) throughout.

For the compound `Cc1ccc(C(=O)NC(=S)N(C)C2CCCCC2)cc1Br`, the EC50 in experiment [1] is 2.54 µM (active); in experiment [2], 2.07 µM (active); in experiment [3], 8.13 µM (active); in the experiment with Streptococcus, 6.98 µM (active).

Turning to `Clc1ccc(C2=NCCN2)cc1`, the EC50 in experiment [2] is 0.24 µM (active); in experiment [3], > 60 µM (not active).

`O=C(CSc1nc[nH]n1)c1cccc([N+](=O)[O-])c1`: the EC50 in experiment [5] is > 260 µM (inactive).

Consider `Cc1cc(C)cc(C(=O)NC2C(=O)N3C(C(=O)O)=C(CSc4nnc(C)s4)CSC23)c1` (centres undefined), for which the EC50 in experiment [1] was 0.512 µM (active); with Streptococcus it was 1.62 µM (active); on Streptokinase A, > 150 µM (not active).

Turning to `Cc1cc(Cl)ccc1OCc1nc(-c2ccncc2)no1`, the figures for the EC50 in experiment [2] and in experiment [3] were 2.43 µM (active) and > 60 µM (inconclusive), respectively.

Take `Cc1nc2c(C(=O)NCc3ccc4c(c3)OCO4)cnn2c(C)c1Cc1ccc(F)cc1Cl`: the values for the EC50 (in experiment [1]; in the experiment with Streptococcus; on Streptokinase A) were 9.62 µM (active), > 150 µM (not active) and 42.9 µM (active), respectively.

As for `O=C(Nc1ccccc1C(=O)OCC(=O)c1c[nH]c2ccccc12)c1ccco1`, the EC50 in experiment [5] is 55.3 µM (active).

Turning to `CCOP(=O)(C(NC(=O)c1ccccc1Cl)=C(Cl)Cl)c1ccccc1` (centres undefined), in experiment [5], the EC50 is > 260 µM (inactive).

For `COc1ccc(-c2nc3scc(-c4ccccc4)n3n2)cc1`, the EC50 in experiment [5] was > 260 µM (inactive).

In the case of `CC12CC3(C)CC(C)(C1)CC(C(=O)NC1=NCCS1)(C2)C3`, the EC50 was 3.33 µM (active) in experiment [1], > 150 µM (not active) in the experiment with Streptococcus and > 150 µM (not active) at Streptokinase A.

For `COc1ccc(C#Cc2ccc3c(=O)c4ccccc4n(C)c3c2)cc1`, the results for the EC50 (in experiment [1]; in the experiment on Streptococcus; on Streptokinase A) were 10.3 µM (active), 102 µM (active) and 110 µM (active), respectively.

For `C/C(=N\NC(=S)Nc1ccc(C)cc1)c1cccc(N)c1`, the EC50 in experiment [4] was > 53 µM (inactive).

With `Cc1ccc(S(=O)(=O)NC(C(=O)O)c2ccccc2)cc1` (centres undefined), the EC50 in experiment [4] is > 53 µM (inactive).

In the case of `CCOC(=O)c1csc(N/N=C2\CCCc3ccccc32)n1`, the EC50 in experiment [1] is 9.3 µM (active); in the experiment on Streptococcus, 16 µM (active); at Streptokinase A, > 150 µM (not active).

Regarding `FC(F)(F)c1cccc(CNC2c3ccccc3-c3ccccc32)c1`, the EC50 was 22.8 µM (active) in experiment [1], > 150 µM (not active) with Streptococcus and 19 µM (active) on Streptokinase A.

Take `CN(C)CCN(C(=O)c1ccc(S(=O)(=O)N(C)c2ccccc2)cc1)c1nc2cc3c(cc2s1)OCO3`: the EC50 in experiment [2] is 0.145 µM (active); in experiment [3], > 60 µM (not active).

Turning to `c1ccc(-c2nnc(-c3c[nH]c4ccccc34)nc2-c2ccccc2)cc1`, the EC50 in experiment [1] is 14.7 µM (active); with Streptococcus, 68.7 µM (active); at Streptokinase A, 20.1 µM (active).

With `Cc1cnc(NC(=O)CSc2ncc(-c3ccccc3)n2Cc2ccco2)s1`, the EC50 in experiment [4] is 5.51 µM (active).

For `Cc1cccc(CN2CCCC(C(=O)c3ccc4c5c(cccc35)CC4)C2)n1` (centres undefined), the EC50 is 15 µM (active) in experiment [1], > 150 µM (not active) in the experiment with Streptococcus and > 150 µM (not active) at Streptokinase A.

As to `COc1ccc(-c2c[n+](-c3ccccc3)c3n2CCS3)cc1`, the EC50 was 0.688 µM (active) in experiment [2] and > 60 µM (not active) in experiment [3].

As to `COc1ccc2[nH]c(CN3CCN(CCC(C)C)C(CCO)C3)c(C)c2c1` (centres undefined), the EC50 is 0.648 µM (active) in experiment [2] and > 60 µM (not active) in experiment [3].

For the compound `COc1ccc(OC)c(N/C(C)=C/C(=O)c2ccccc2)c1`, the EC50 in experiment [2] was 2.49 µM (active); in experiment [3] it was > 60 µM (not active).

Regarding `O=C1NC(=O)N(Cc2ccccc2)C(=O)/C1=C/NNC(=O)c1ccccc1`, the EC50 in experiment [1] is 9.3 µM (active); in the experiment on Streptococcus, 16.4 µM (active); on Streptokinase A, > 150 µM (not active).

As to `Cc1cc(C)c(COc2ccc(/C=N/n3c(C)nnc3S)cc2)c(C)c1`, the EC50 in experiment [1] was 4.01 µM (active); in the experiment with Streptococcus it was 12.2 µM (active); at Streptokinase A, 12 µM (active).

`Cc1cccc(C)c1NC(=O)CN(C)CC(=O)Nc1sc2c(c1C(N)=O)CCC2`: the EC50 (in experiment [1]; with Streptococcus; on Streptokinase A) was > 150 µM (not active) throughout.

On to `OC1(C#Cc2c(-c3ccsc3)oc3ccc(N4CCOCC4)cc23)CCCCC1`, for which the EC50 was 6.92 µM (active) in experiment [1], 15.3 µM (active) in the experiment on Streptococcus and 54.6 µM (inconclusive) on Streptokinase A.

As for `Cc1ccc2nc(NCCC(=O)O)nc(-c3ccccc3)c2c1`, the EC50 in experiment [4] was 5.3 µM (active).

Consider `COc1cccc(C2CC(c3cccs3)=NN2C(=O)CSc2nc(O)c3cnn(-c4ccc(F)cc4)c3n2)c1OC` (centres undefined), for which the EC50 in experiment [1] was 1.63 µM (active); in the experiment with Streptococcus, 11.6 µM (active).

As to `Fc1ccc(-c2cc(C(F)(F)C(F)F)[nH]n2)cc1`, the EC50 in experiment [4] is 6.17 µM (active).

(Values after ChEMBL document CHEMBL1201862, “PubChem BioAssay data set” (2004).)
